The CheMixHub viscosity set

Assay: xn = mol fraction of the nth substance listed

CC(C)CC(C)(C)C + CC(C)O
viscosity [mPa·s], 101 kPa
Conditions	298.15 K	308.15 K
x1 = 0.0513	1.722	–
x1 = 0.0555	1.703	–
x1 = 0.1045	1.47	–
x1 = 0.1511	1.3	–
x1 = 0.2103	1.123	–
x1 = 0.2394	1.066	–
x1 = 0.2822	0.947	–
x1 = 0.4108	0.751	–
x1 = 0.4264	0.734	–
x1 = 0.5195	0.64	–
x1 = 0.5751	0.599	–
x1 = 0.6545	0.562	–
x1 = 0.6978	0.54	–
x1 = 0.8094	0.505	–
x1 = 0.9505	0.49	–
x2 = 0.05	0.482	0.432
x2 = 0.1	0.486	0.434
x2 = 0.1501	0.493	0.44
x2 = 0.2	0.503	0.447
x2 = 0.25	0.515	0.457
x2 = 0.3	0.53	0.468
x2 = 0.35	0.55	0.483
x2 = 0.4	0.576	0.501
x2 = 0.45	0.608	0.524
x2 = 0.5	0.646	0.552
x2 = 0.55	0.694	0.586
x2 = 0.6	0.751	0.628
x2 = 0.65	0.819	0.677
x2 = 0.7	0.901	0.736
x2 = 0.75	1.003	0.806
x2 = 0.8	1.122	0.898
x2 = 0.85	1.277	1.006
x2 = 0.9	1.407	1.145
x2 = 0.95	1.707	1.31

CCCCCC(=O)O + CC(C)[C@@H]1CC[C@@H](C)C[C@H]1O
Conditions	viscosity [mPa·s]
298 K, 101 kPa, x2 = 0.333	8.9

CC(=O)CC(C)C + CCC(C)(C)O
viscosity [mPa·s]
Conditions	298.15 K	303.15 K	308.15 K	313.15 K
101 kPa, x1 = 0.1	2.52	–	–	–
101 kPa, x1 = 0.2	1.823	–	–	–
101 kPa, x1 = 0.3	1.376	–	–	–
101 kPa, x1 = 0.4	1.1	–	–	–
101 kPa, x1 = 0.5	0.928	–	–	–
101 kPa, x1 = 0.6	0.815	–	–	–
101 kPa, x1 = 0.7	0.727	–	–	–
101 kPa, x1 = 0.8	0.65	–	–	–
101 kPa, x1 = 0.9	0.584	–	–	–
101.3 kPa, x1 = 0.1053	2.5	2.11	1.79	1.52
101.3 kPa, x1 = 0.1952	1.77	1.52	1.32	1.15
101.3 kPa, x1 = 0.305	1.37	1.21	1.07	0.951
101.3 kPa, x1 = 0.4324	1.05	0.946	0.856	0.776
101.3 kPa, x1 = 0.495	0.95	0.866	0.786	0.721
101.3 kPa, x1 = 0.6	0.813	0.747	0.69	0.64
101.3 kPa, x1 = 0.7004	0.719	0.671	0.627	0.587
101.3 kPa, x1 = 0.7937	0.641	0.603	0.569	0.538
101.3 kPa, x1 = 0.9001	0.589	0.558	0.529	0.503

O=C1CCCCC1 + CCC(C)=O
298.15 K, 101 kPa
Conditions	viscosity [mPa·s]
x1 = 0.0755	0.45
x1 = 0.1552	0.523
x1 = 0.2395	0.576
x1 = 0.3288	0.655
x1 = 0.4235	0.739
x1 = 0.5243	0.868
x1 = 0.6316	1.03
x1 = 0.7461	1.258
x1 = 0.8686	1.587

CC(C)CC(=O)CC(C)C + CCC(C)O
viscosity [mPa·s], 100 kPa
Conditions	x1 = 0.0815	x1 = 0.157	x1 = 0.2356	x1 = 0.3483	x1 = 0.4431	x1 = 0.5526	x1 = 0.6467	x1 = 0.7381	x1 = 0.8512	x1 = 0.9337
293.15 K	2.84	2.17	1.64	1.1	0.8	0.61	0.59	0.66	0.78	0.87
298.15 K	2.36	1.82	1.36	0.88	0.63	0.47	0.45	0.54	0.69	0.81
303.15 K	2	1.54	1.15	0.73	0.5	0.37	0.35	0.44	0.61	0.75
308.15 K	1.69	1.33	0.99	0.64	0.44	0.31	0.27	0.36	0.56	0.72
313.15 K	1.42	1.11	0.85	0.55	0.39	0.27	0.24	–	0.51	0.66
318.15 K	1.23	0.99	0.77	0.5	0.35	0.22	0.19	0.27	0.47	0.62
323.15 K	1.11	0.91	0.72	0.46	0.3	0.17	0.15	0.23	0.42	0.57

O=C1CCCCC1 + CCC(C)O
298.15 K, 101 kPa
Conditions	viscosity [mPa·s]
x1 = 0.1006	2.33
x1 = 0.209	1.9
x1 = 0.3005	1.66
x1 = 0.403	1.55
x1 = 0.4997	1.51
x1 = 0.6988	1.57
x1 = 0.8007	1.66
x1 = 0.8986	1.79

CC(C)CC(=O)CC(C)C + CCCC(C)O
viscosity [mPa·s], 100 kPa
Conditions	x1 = 0.0794	x1 = 0.1627	x1 = 0.2381	x1 = 0.3487	x1 = 0.4381	x1 = 0.5619	x1 = 0.6565	x1 = 0.7364	x1 = 0.8517	x1 = 0.9341
293.15 K	3.12	2.32	1.78	1.18	0.84	0.58	0.51	0.55	0.71	0.85
298.15 K	2.63	1.94	1.43	0.89	0.62	0.43	0.4	0.47	0.66	0.81
303.15 K	2.24	1.68	1.21	0.76	0.52	0.34	0.32	0.41	0.6	0.76
308.15 K	1.89	1.41	1.05	0.66	0.44	0.27	0.24	0.33	0.52	0.7
313.15 K	1.55	1.17	0.87	0.55	0.37	0.22	0.19	0.28	0.46	0.64
318.15 K	1.28	0.98	0.75	0.49	0.32	0.18	0.16	0.24	0.42	0.59
323.15 K	1.09	0.84	0.65	0.42	0.26	0.14	–	0.2	0.38	0.53
